{"source": "patent US9255080B2", "about": "“Quinazolinedione derivatives as PARP inhibitors” (Janssen Pharmaceutica NV, priority 2004, dated 2016)", "origin": "cited, not measured here", "key": {"[1]": {"system": "ischemia and reperfusion of the heart", "details": "rabbits, cited from earlier work"}, "[2]": {"system": "colitis induced by trinitrobenzene sulfonic acid", "details": "rats, colitis by intraluminal trinitrobenzene sulfonic acid in 50% ethanol; cited from earlier work"}}}
{"molecule": "Oc1cccc2c(O)nccc12", "note": "[1,5-dihydroxyisoquinoline]", "values": [{"measurement": "reduction in infarct size", "setting": "[1]; single injection 1 mg/kg", "value": "38-48%"}]}
{"molecule": "NC(=O)c1cccc(N)c1", "note": "[3-amino-benzamide]", "values": [{"measurement": "reduction in infarct size in the heart", "setting": "[1]; single injection 10 mg/kg, one minute before occlusion or one minute before reperfusion", "value": "32-42%"}, {"measurement": "effect on inflammatory response and distal colon", "setting": "[2]", "value": "reduced the inflammatory response and restored the morphology and the energetic status of the distal colon"}]}
